Measurements as given in US11859229B2, “Polyvinyl alcohol-degrading enzyme and process for producing the same” (Hayashibara Co., Ltd., priority 2017, dated 2024).

Columns and labels:
Type in all cases: biochemical, Pseudomonas sp. VT1B strain (NBRC110478)
PVA-A [1] = experiment: Substrate specificity of PVA-oxidizing activity of PVA-A; conditions: substrate 1% (v/v) or saturated; activity against PVA = 100%
Procedure: (§1) To 0.5 mL of a substrate solution prepared by dissolving PVA (Reagent grade polyvinyl alcohol, polymerization degree: 2,000, Nacalai Tesque Inc., Kyoto, Japan) into 100 mM sodium phosphate buffer (pH 7.0) to give a concentration of 2% (w/v), 15 µL of 2% (w/v) of sodium azide solution was added, and then 0.5 mL of an enzyme solution is further added and reacted with shaking at 27° C. for 60 min. After the 60 min-reaction, the reaction was stopped by mixing 0.32 mL of the reaction mixture to 0.8 mL of a titanium reagent, and the yellow color, produced by reacting hydrogen peroxide formed by the enzyme reaction and the titanium reagent, was measured by measuring the absorbance at 410 nm (A410) as an index. Separately, the enzyme solution was added to the substrate solution, and the resulting mixture is immediately mixed with the titanium reagent. The resulting mixture was similarly measured its color and the value was used as the value at the reaction zero minutes. Then, the amount of the formed hydrogen peroxide is determined and the PVA-oxidizing activity is calculated based on the following formula. It is known that the absorbance at 410 nm (A410) increases by “1” when 3.65 […]mole/mL of hydrogen peroxide is formed. Therefore, in the following Formula 1, the coefficient of “3.65” has been multiplied. One unit of the PVA-oxidizing activity is defined as the amount of enzyme that forms 1 […]mole of hydrogen peroxide per min under the above conditions. Titanium reagent is prepared by diluting 5% titanium sulfate (IV) solution, commercialized by Nacalai Tesque Inc., Kyoto, Japan, 25-fold with 10% (w/w) sulfuric acid.
(§2) The substrate specificity of PVA-oxidizing activity was investigated by allowing PVA-A and PVA-B, the purified enzyme preparations obtained by the method in Experiment 2, to act on various secondary alcohols, primary alcohols and the like as substrates. In other words, the PVA-oxidizing activity of the enzymes was measured for primary alcohols having different chain length (methanol, ethanol, propanol, butanol, pentanol, hexanol, heptanol, and decanol), secondary alcohols (2-propanol, 2-pentanol, 2-hexanol, 4-heptanol, 2-octanol, 4-decanol, and 2, 4-pentanediol), and a tertiary alcohol (tert-butanol).

PVA-B [2] = experiment: Substrate specificity of PVA-oxidizing activity of PVA-B; conditions: substrate 1% (v/v) or saturated; activity against PVA = 100%
Procedure: as §1, §2

PVA-A [3] = experiment: Effects of various metal salts on PVA-oxidizing activity of PVA-A
Procedure: as §1
(§3) Using the purified enzyme preparations of PVA-A and PVA-B, obtained by the method of Experiment 2, effects of various metal salts on the enzyme activity were investigated according to the assay of the PVA-oxidizing activity as an index in the presence of 1 mM metal salts.

PVA-B [4] = experiment: Effects of various metal salts on PVA-oxidizing activity of PVA-B
Procedure: as §1, §3

PVA-A and PVA-B = experiment: Effects of metal salts on PVA-oxidizing activity, summary for both enzymes; conditions: 1 mM, in words
Procedure: as §3

[5] = PVA-oxidizing activity in the presence of 1 mM metal salts, None = 100

CC(O)CC(C)O (stereo not shown) [2,4-Pentanediol]
Relative activity (%) PVA-A (PVA-A [1]): 0%
Relative activity (%) PVA-B (PVA-B [2]): 0%

CCCCC(C)O (stereo not shown) [2-Hexanol]
Relative activity (%) PVA-A (PVA-A [1]): 5%
Relative activity (%) PVA-B (PVA-B [2]): 8%

CCCCCCC(C)O (stereo not shown) [2-Octanol]
Relative activity (%) PVA-A (PVA-A [1]): 3%
Relative activity (%) PVA-B (PVA-B [2]): 6%

CCCC(C)O (stereo not shown) [2-Pentanol]
Relative activity (%) PVA-A (PVA-A [1]): 2%
Relative activity (%) PVA-B (PVA-B [2]): 5%

CC(C)O [2-Propanol]
Relative activity (%) PVA-A (PVA-A [1]): 0%
Relative activity (%) PVA-B (PVA-B [2]): 1%

CCCCCCC(O)CCC (stereo not shown) [4-Decanol]
Relative activity (%) PVA-A (PVA-A [1]): 3%
Relative activity (%) PVA-B (PVA-B [2]): 1%

CCCC(O)CCC [4-Heptanol]
Relative activity (%) PVA-A (PVA-A [1]): 21%
Relative activity (%) PVA-B (PVA-B [2]): 12%

[Cl][Al]([Cl])[Cl] [AlCl3]
Relative activity (%) PVA-A (PVA-A [3]; [5]): 91%
Relative activity (%) PVA-B (PVA-B [4]; [5]): 63%

[Ca+2].[Cl-].[Cl-] [CaCl2]
Relative activity (%) PVA-A (PVA-A [3]; [5]): 98%
Relative activity (%) PVA-B (PVA-B [4]; [5]): 98%

CCCCCCCCCCO [Decanol]
Relative activity (%) PVA-A (PVA-A [1]): 0%
Relative activity (%) PVA-B (PVA-B [2]): 0%

O=C(O)CN(CCN(CC(=O)O)CC(=O)O)CC(=O)O [EDTA]
Relative activity (%) PVA-A (PVA-A [3]; [5]): 56%
Relative activity (%) PVA-B (PVA-B [4]; [5]): 45%
Effect on PVA-oxidizing activity (PVA-A and PVA-B): also inhibited

CCO [Ethanol]
Relative activity (%) PVA-A (PVA-A [1]): 0%
Relative activity (%) PVA-B (PVA-B [2]): 0%

[Cl][Fe]([Cl])[Cl] [FeCl3]
Relative activity (%) PVA-A (PVA-A [3]; [5]): 29%
Relative activity (%) PVA-B (PVA-B [4]; [5]): 19%
Effect on PVA-oxidizing activity (PVA-A and PVA-B): remarkably inhibited

CCCCCCCO [Heptanol]
Relative activity (%) PVA-A (PVA-A [1]): 0%
Relative activity (%) PVA-B (PVA-B [2]): 1%

CCCCCCO [Hexanol]
Relative activity (%) PVA-A (PVA-A [1]): 0%
Relative activity (%) PVA-B (PVA-B [2]): 1%

[Cl][Hg][Cl] [HgCl2]
Relative activity (%) PVA-A (PVA-A [3]; [5]): 22%
Relative activity (%) PVA-B (PVA-B [4]; [5]): 4%
Effect on PVA-oxidizing activity (PVA-A and PVA-B): remarkably inhibited

[Cl-].[K+] [KCl]
Relative activity (%) PVA-A (PVA-A [3]; [5]): 93%
Relative activity (%) PVA-B (PVA-B [4]; [5]): 116%

CO [Methanol]
Relative activity (%) PVA-A (PVA-A [1]): 0%
Relative activity (%) PVA-B (PVA-B [2]): 0%

[Cl-].[Cl-].[Mg+2] [MgCl2]
Relative activity (%) PVA-A (PVA-A [3]; [5]): 98%
Relative activity (%) PVA-B (PVA-B [4]; [5]): 104%

[Cl][Mn][Cl] [MnCl2]
Relative activity (%) PVA-A (PVA-A [3]; [5]): 96%
Relative activity (%) PVA-B (PVA-B [4]; [5]): 87%

[Cl-].[Na+] [NaCl]
Relative activity (%) PVA-A (PVA-A [3]): 94%
Relative activity (%) PVA-B (PVA-B [4]): 106%

[Cl][Ni][Cl] [NiCl2]
Relative activity (%) PVA-A (PVA-A [3]; [5]): 91%
Relative activity (%) PVA-B (PVA-B [4]; [5]): 76%

CCCCCO [Pentanol]
Relative activity (%) PVA-A (PVA-A [1]): 0%
Relative activity (%) PVA-B (PVA-B [2]): 0%

CCCO [Propanol]
Relative activity (%) PVA-A (PVA-A [1]): 0%
Relative activity (%) PVA-B (PVA-B [2]): 0%

[Cl][Sn][Cl] [SnCl2]
Relative activity (%) PVA-A (PVA-A [3]; [5]): 78%
Relative activity (%) PVA-B (PVA-B [4]; [5]): 102%

[Cl-].[Cl-].[Sr+2] [SrCl2]
Relative activity (%) PVA-A (PVA-A [3]; [5]): 99%
Relative activity (%) PVA-B (PVA-B [4]; [5]): 101%

CC(C)(C)O [tert-Butanol]
Relative activity (%) PVA-A (PVA-A [1]): 0%
Relative activity (%) PVA-B (PVA-B [2]): 1%

Butanol
Relative activity (%) PVA-A (PVA-A [1]): 0%
Relative activity (%) PVA-B (PVA-B [2]): 0%

RbCl2
Relative activity (%) PVA-A (PVA-A [3]; [5]): 91%
Relative activity (%) PVA-B (PVA-B [4]; [5]): 99%
